Data: US9029376B2, “Small molecule inhibitors for the treatment or prevention of dengue virus infection” (Siga Technologies, Inc., priority 2008, dated 2015)

system: Dengue-2 (Strain New Guinea C); assay: Dengue-2 viral yield assay in Vero cells; type: cell-based; details: Dengue virus, Vero, 48 h, read-out: Activity (anti-dengue 2 viral activity, EC50)
Experimental: Compounds that were active in the primary screen were tested for activity in viral yield assays. […] Vero cells in 12-well plates were infected with dengue-2 virus at a multiplicity of infection (MOI) of 0.1, treated with compound (or DMSO as a control), incubated at 37° C., harvested 48 hours post infection and titered on Vero cells as described above. The EC50 was calculated through ExcelFit. Those compounds with activity below 1 μM are indicated with “A”, those with activity between 1 and 10 μM are indicated with “B”, and those with activity between 10 and 25 μM with “C”.

Row | Structure (SMILES) | EC50
1 | O=C(CSc1nc2ccccc2s1)N1CCCCC1 [Compound 41, 2-(Benzothiazol-2-ylsulfanyl)-1-piperidin-1-yl-ethanone] | > 25 µM
2 | CC1CCN(C(=O)CSc2nc3ccccc3[nH]2)CC1 [Compound 44, 2-(1H-Benzoimidazol-2-ylsulfanyl)-1-(4-methyl-piperidin-1-yl)-ethanone] | > 25 µM
3 | O=C(CSc1nc2ccccc2[nH]1)N1CCN(c2ccccc2)CC1 [Compound 46, 2-(1H-Benzoimidazol-2-ylsulfanyl)-1-(4-phenyl-piperazin-1-yl)-ethanone] | > 25 µM
4 | O=C(O)c1ccc2oc(SCC(=O)N3CCCCC3)nc2c1 [Compound 48, 2-(2-oxo-2-piperidin-1-yl-ethylsulfanyl)-benzooxazole-5-carboxylic acid] | > 25 µM
5 | O=C(CSc1nnc(CSc2nc3ccccc3s2)o1)NC1CCCCC1 [Compound 53, 2-[5-(Benzothiazol-2-ylsulfanylmethyl)-[1,3,4]oxadiazol-2-ylsulfanyl]-N-cyclohexyl-acetamide] | > 25 µM
6 | CCC(=O)Nc1ccc2nc(SCC(=O)N3CCN(c4ccccc4)CC3)sc2c1 [Compound 54, N-{2-[2-oxo-2-(4-phenyl-piperazin-1-yl)-ethylsulfanyl]-benzothiazol-6-yl}-propionamide] | > 25 µM
7 | Nc1ccc2nc(SCC(=O)N3CCCC3)sc2c1 [Compound 59, 2-(6-Amino-benzothiazol-2-ylsulfanyl)-1-pyrrolidin-1-yl-ethanone] | > 25 µM
8 | O=C1CC(N2CCN(c3nc4ccccc4s3)CC2)C(=O)N1c1ccc(F)cc1 (stereo not shown) [Compound 60, 3-(4-Benzothiazol-2-yl-piperazin-1-yl)-1-(4-fluoro-phenyl)-pyrrolidine-2,5-dione] | > 25 µM

same assay, conditions: Dengue virus; Dengue-2 strain New Guinea C, Vero cells, MOI 0.1, harvested 48 hours post infection, viral yield; read-out: Activity (anti-dengue 2 viral activity, EC50)

Row | Structure (SMILES) | EC50
9 | Cn1ccnc1SCC(=O)Nc1ccc2nc(SCC(=O)N3CCOCC3)sc2c1 [Compound 33, 2-(1-Methyl-1H-imidazol-2-ylsulfanyl)-N-[2-(2-morpholin-4-yl-2-oxo-ethylsulfanyl)-benzothiazol-6-yl]-acetamide] | > 25 µM
10 | O=C(CSc1nc2ccccc2s1)Nc1ccc2nc(SCC(=O)N3CCOCC3)sc2c1 [Compound 34, 2-(Benzothiazol-2-ylsulfanyl)-N-[2-(2-morpholin-4-yl-2-oxo-ethylsulfanyl)-benzothiazol-6-yl]-acetamide] | > 25 µM
11 | O=C(CSc1nnc(-c2ccccc2)n1-c1ccccc1)Nc1ccc2nc(SCC(=O)N3CCOCC3)sc2c1 [Compound 35, 2-(4,5-Diphenyl-4H-[1,2,4]triazol-3-ylsulfanyl)-N-[2-(2-morpholin-4-yl-2-oxo-ethylsulfanyl)-benzothiazol-6-yl]-acetamide] | > 25 µM
12 | Cn1c(Cc2cccc3ccccc23)nnc1SCC(=O)Nc1ccc2nc(SCC(=O)N3CCOCC3)sc2c1 [Compound 36, 2-(4-Methyl-5-naphthalen-1-ylmethyl-4H-[1,2,4]triazol-3-ylsulfanyl)-N-[2-(2-morpholin-4-yl-2-oxo-ethylsulfanyl)-benzothiazol-6-yl]-acetamide] | > 25 µM
13 | Cn1c(SCC(=O)Nc2ccc3nc(SCC(=O)N4CCOCC4)sc3c2)nnc1-c1ccccc1 [Compound 37, 2-(4-Methyl-5-phenyl-4H-[1,2,4]triazol-3-ylsulfanyl)-N-[2-(2-morpholin-4-yl-2-oxo-ethylsulfanyl)-benzothiazol-6-yl]-acetamide] | > 25 µM
14 | O=C(Cc1cccc2ccccc12)Nc1ccc2nc(SCC(=O)N3CCOCC3)sc2c1 [Compound 38, N-[2-(2-Morpholin-4-yl-2-oxo-ethylsulfanyl)-benzothiazol-6-yl]-2-naphthalen-1-yl-acetamide] | > 25 µM
15 | CCOc1ccc2nc(SCC(=O)N3CCN(c4nc5ccccc5s4)CC3)sc2c1 [Compound 39, 1-(4-Benzothiazol-2-yl-piperazin-1-yl)-2-(6-ethoxy-benzothiazol-2-ylsulfanyl)-ethanone] | > 25 µM
16 | Nc1ccc2nc(SCC(=O)N3CCN(c4nc5ccccc5s4)CC3)sc2c1 [Compound 40, 2-(6-Amino-benzothiazol-2-ylsulfanyl)-1-(4-benzothiazol-2-yl-piperazin-1-yl)-ethanone] | > 25 µM
17 | O=C(CSc1nc2ccccc2[nH]1)N1CCOCC1 [Compound 42, 2-(1H-Benzoimidazol-2-ylsulfanyl)-1-morpholin-4-yl-ethanone] | > 25 µM
18 | O=C(CSc1nc2ccccc2[nH]1)N1CCCCCC1 [Compound 43, 1-Azepan-1-yl-2-(1H-benzoimidazol-2-ylsulfanyl)-ethanone] | > 25 µM
19 | O=C(CSc1nc2ccccc2[nH]1)N1CCCC1 [Compound 45, 2-(1H-Benzoimidazol-2-ylsulfanyl)-1-pyrrolidin-1-yl-ethanone] | > 25 µM
20 | O=C(CSc1nc2ccccc2o1)N1CCc2ccccc2C1 [Compound 47, 2-(Benzooxazol-2-ylsulfanyl)-1-(3,4-dihydro-1H-isoquinolin-2-yl)-ethanone] | > 25 µM
21 | O=C(CSc1nc2ccc([N+](=O)[O-])cc2s1)N1CCCCC1 [Compound 49, 2-(6-Nitro-benzothiazol-2-ylsulfanyl)-1-piperidin-1-yl-ethanone] | > 25 µM
22 | O=C(CSc1nc2ccccc2s1)N1CCN(c2nc3ccccc3s2)CC1 [Compound 50, 1-(4-Benzothiazol-2-yl-piperazin-1-yl)-2-(benzothiazol-2-ylsulfanyl)-ethanone] | > 25 µM
23 | O=C(CSc1nc2ccccc2n1-c1ccccc1)N1CCN(c2ccccc2)CC1 [Compound 51, 2-(1-Phenyl-1H-benzoimidazol-2-ylsulfanyl)-1-(4-phenyl-piperazin-1-yl)-ethanone] | > 25 µM
24 | O=C(CSc1nc2ccc([N+](=O)[O-])cc2s1)N1CCN(c2ccccc2)CC1 [Compound 52, 2-(6-Nitro-benzothiazol-2-ylsulfanyl)-1-(4-phenyl-piperazin-1-yl)-ethanone] | > 25 µM
25 | O=C(CSc1nc2ccc([N+](=O)[O-])cc2s1)N1CCCC1 [Compound 55, 2-(6-Nitro-benzothiazol-2-ylsulfanyl)-1-pyrrolidin-1-yl-ethanone] | > 25 µM
26 | Cc1ccc(C(=O)Nc2ccc3nc(SCC(=O)N4CCCCC4)sc3c2)cc1 [Compound 56, 4-Methyl-N-[2-(2-oxo-2-piperidin-1-yl-ethylsulfanyl)-benzothiazol-6-yl]-benzamide] | > 25 µM
27 | CC(=O)Nc1ccc2nc(SCC(=O)N3CCN(c4ccccc4)CC3)sc2c1 [Compound 57, N-{2-[2-Oxo-2-(4-phenyl-piperazin-1-yl)-ethylsulfanyl]-benzothiazol-6-yl}-acetamide] | > 25 µM
28 | O=C(Nc1ccc2nc(SCC(=O)N3CCCC3)sc2c1)c1ccc(Cl)cc1 [Compound 58, 4-Chloro-N-[2-(2-oxo-2-pyrrolidin-1-yl-ethylsulfanyl)-benzothiazol-6-yl]-benzamide] | > 25 µM
29 | O=C(CSc1nc2ccccc2[nH]1)N1CCc2ccccc2C1 [Compound 61, 2-(1H-Benzoimidazol-2-ylsulfanyl)-1-(3,4-dihydro-1H-isoquinolin-2-yl)-ethanone] | > 25 µM
30 | CCN(CC)C(=O)CSc1nc2cc(C)ccc2[nH]1 [Compound 62, N,N-Diethyl-2-(5-methyl-1H-benzoimidazol-2-ylsulfanyl)-acetamide] | > 25 µM
31 | O=C(CSc1nc2ccccc2s1)N1CCCC1 [Compound 63, 2-(Benzothiazol-2-ylsulfanyl)-1-pyrrolidin-1-yl-ethanone] | > 25 µM
